Measured values published in ChEMBL document CHEMBL1133713, “Novel 1,5-diphenylpyrazole nonnucleoside HIV-1 reverse transcriptase inhibitors with enhanced activity versus the delavirdine-resistant P236L mutant: lead identification and SAR of 3- and 4-substituted derivatives” (J Med Chem, 2000).
Where a name gives a salt, the structure may show the parent alone.

Columns and labels:
[1] = test system: Human immunodeficiency virus type 1 reverse transcriptase (Human immunodeficiency virus 1), Q72547 [P236L]; assay: In vitro inhibition of mutant P236L reverse transcriptase at a concentration of 1 uM.
[2] = test system: Human immunodeficiency virus type 1 reverse transcriptase (Human immunodeficiency virus 1), Q72547 [P236L]; assay: In vitro inhibition of mutant P236L reverse transcriptase at a concentration of 10 uM.
[3] = test system: Human immunodeficiency virus type 1 reverse transcriptase (Human immunodeficiency virus 1), Q72547 [P236L]; assay: In vitro Inhibition of mutant P236L reverse transcriptase at a concentration of 50 uM.
[4] = molecular target: Human immunodeficiency virus type 1 reverse transcriptase (Human immunodeficiency virus 1) (UniProt Q72547); assay: In vitro inhibition of wild type resistant reverse transcriptase at a concentration of 10 uM.
[5] = molecular target: Human immunodeficiency virus type 1 reverse transcriptase (Human immunodeficiency virus 1) (UniProt Q72547); assay: In vitro inhibition of wild type resistant reverse transcriptase at a concentration of 50 uM.
[6] = molecular target: Human immunodeficiency virus type 1 reverse transcriptase (Human immunodeficiency virus 1) (UniProt Q72547); assay: In vitro inhibition of wild type resistant reverse transcriptase at a concentration of 1 uM.
[7] = Cytotoxic concentration was determined; assay type: functional
[8] = Effective dose for inhibition of viral replication in cell culture […]; assay type: functional; conditions: read-out: ED50 (the source's name)
[9] = molecular target: Human immunodeficiency virus type 1 reverse transcriptase (Human immunodeficiency virus 1, UniProt Q72547, P236L); assay: In vitro ability to inhibit mutant P236L reverse transcriptase
[10] = molecular target: Human immunodeficiency virus type 1 reverse transcriptase (Human immunodeficiency virus 1, UniProt Q72547); assay: In vitro ability to inhibit wild type resistant (WT) reverse transcriptase

SMILES | inhibition [1] [%] | inhibition [2] [%] | inhibition [3] [%] | inhibition [4] [%] | inhibition [5] [%] | inhibition [6] [%] | CC50 [7] [nM] | EC50 [8] [nM] | IC50 [9] [nM] | IC50 [10] [nM]
CCc1c(CC(=O)OC)nn(-c2ccccc2)c1-c1ccccc1 | 21 | 41 | 55 | 20 | 34 | 5 |  |  |  | 
Cc1nn(-c2ccccc2)c(-c2ccccc2)c1C(C)C | 0 | 8 | 13 | 18 | 6 | 0 |  |  |  | 
COCc1c(C)nn(-c2ccccc2)c1-c1ccccc1 | 0 | 18 | 50 | 0 | 14 | 0 |  |  |  | 
CCc1c(CCOC)nn(-c2ccccc2)c1-c1ccccc1 | 15 | 47 | 71 | 29 | 33 | 22 |  |  |  | 
Cc1nn(-c2ccccc2)c(-c2ccccc2)c1CC#N | 47 | 77 | 93 | 71 | 90 | 37 | > 10000 | 100 | 1140 | 2310
C=Cc1c(C)nn(-c2ccccc2)c1-c1ccccc1 | 21 | 26 | 59 | 10 | 18 | 3.6 |  |  |  | 
Cc1ccnc2c1NC(=O)c1cccnc1N2C1CC1 [NEVIRAPINE] |  |  |  |  |  |  | > 10000 | 10 |  | 
CCc1c(CCO)nn(-c2ccccc2)c1-c1ccccc1 | 58 | 84 | 95 | 18 | 42 | 0 |  |  | 650 | > 50000
CCc1cc(NCc2nc3c(Cl)ccc(Cl)c3o2)c(O)nc1C [L-697661] |  |  |  |  |  |  | > 10000 | < 0.1 |  | 
Cc1nn(-c2ccccc2)c(-c2ccccc2)c1C(=O)O | 0 | 1 | 4 | 0 | 1 | 4 |  |  |  | 
CC#Cc1c(C)nn(-c2ccccc2)c1-c1ccccc1 | 38 | 80 | 93 | 37 | 72 | 0 |  |  | 1540 | 13400
CNC(=O)c1c(C)nn(-c2ccccc2)c1-c1ccccc1 | 15 | 0 | 0 | 7 | 3 | 5 |  |  |  | 
CCCc1c(C)nn(-c2ccccc2)c1-c1ccccc1 | 4 | 56 | 71 | 31 | 49 | 14 |  |  |  | 
CCc1c(CC#N)nn(-c2ccccc2)c1-c1ccccc1 | 14 | 46 | 72 | 15 | 39 | 2 |  |  |  | 
Cc1nn(-c2ccccc2)c(-c2ccccc2)c1CCO | 12 | 8 | 28 | 0 | 0 | 0 |  |  |  | 
CCc1c(CC(=O)O)nn(-c2ccccc2)c1-c1ccccc1 | 0 | 13 | 14 | 0 | 0 | 0 |  |  |  | 
CCc1c(CC(N)=O)nn(-c2ccccc2)c1-c1ccccc1 | 16 | 29 | 52 | 18 | 39 | 12 |  |  |  | 
Cc1nn(-c2ccccc2)c(-c2ccccc2)c1CC(N)=O | 0 | 0 | 29 | 36 | 48 | 11 |  |  |  | 
CC(C)Nc1cccnc1N1CCN(C(=O)c2cc3cc(NS(C)(=O)=O)ccc3[nH]2)CC1 [DELAVIRDINE MESYLATE] |  |  |  |  |  |  | > 10000 | 0.1 |  | 
C/N=C(/S)c1c(C)nn(-c2ccccc2)c1-c1ccccc1 | 0 | 0 | 0 | 0 | 0 | 0 |  |  |  | 
Cc1nn(-c2ccccc2)c(-c2ccccc2)c1C | 0 | 3 | 36 | 0 | 0 | 0 |  |  |  | 
CCc1c(CC(=O)NC)nn(-c2ccccc2)c1-c1ccccc1 | 6 | 8 | 12 | 3 | 7 | 1 |  |  |  | 
CCc1c(C)nn(-c2ccccc2)c1-c1ccccc1 | 50 | 81 | 94 | 42 | 67 | 1 |  |  | 520 | 14500
Cc1nn(-c2ccccc2)c(-c2ccccc2)c1CC(=O)O | 0 | 0 | 0 | 0 | 3 | 0 |  |  |  | 
